{"source": "patent US7723023B2", "about": "“Use of intrinsic reporters of cell signaling for high content drug profiling and toxicity screening” (Mount Sinai School of Medicine, priority 2001, dated 2010)", "tested_on": "GnRHR-expressing LβT2 gonadotrope cell line", "assay": "Focused cDNA microarray analysis (FMA) of genes regulated by GnRH in LβT2 cells", "assay_type": "cell-based, mouse", "method": "Cell Culture and Sample Preparation: LβT2 cells were obtained and maintained at 37° C. in 5% CO2 in humidified air in DMEM (Mediatech) containing 10% fetal bovine serum (Gemini). For experiments. 40-50×10^6 cells were seeded in 15 cm dishes. The medium was replaced 21 hours later with DMEM containing 25 mM HEPES (Mediatech) and glutamine. […] The incubation was stopped by aspirating the incubation medium and adding 10 ml of lysis buffer (4M guanidinium thiocyanate, 25 mM sodium citrate, pH 7.0, 0.5% N-lauroyl-sarcosine, and 0.1 M 2-mercaptoethanol). Total RNA was isolated according to the method of Chomczynski and Sacchi (1987) supra. Approximately 400 μg total RNA was obtained from each plate.\nMicroarray Development: The 956 clones were selected from an NIA 15K library (Tanaka et al. (2000) Proc. Natl. Acad. Sci. USA 97:9127-9132) or purchased from Research Genetics. The gene selection was partially based on literature searches. A large number of genes known to be induced at early time points in other experimental systems were included as well as 67 putative “housekeeping” genes. Plasmids were purified using the Qiaprep 96 Turbo Miniprep kit. Following insert amplification by PCR, products were confirmed by agarose gel electrophoresis and purified with Qiaquick 96 kit (Qiagen). The product was dried, dissolved in 18 μl H2O. 50% DMSO or 3×SSC and spotted (3 hits/feature, 3 features/gene) with a GMS 417 Arrayer (Affymetrix) on CMT-GAPS coated glass slides (Corning). DNA was fixed either by incubating the slide 3.5 hours at 40° C. followed by 10 min at 100° C. or for 2 hours at 85° C. or by UV crosslinking with 90 mJ (Stratalinker, Stratagene). Arrays were stored light-protected at room temperature until use. A Cy5-labeled oligomer complementary to one of the amplification primers was designed to test printing and attachment efficiency (5′-CGTTTTACAACGTCGTGACTGGG-3′) (SEQ ID NO:1). 12% of the cDNAs on the array were confirmed by sequencing, including randomly selected clones on each 96-well plate and all genes that were identified as regulated.\nRNA Labeling and Hybridization. 20 μg of total RNA from each sample was labeled with either Cy3 or Cy5 using the Atlas indirect labeling kit (Clontech) as indicated by the manufacturer. Following array prehybridization in 6×SSC, 0.5% SDS, 1% BSA at 42° C. for 45 min, the probe was denatured and hybridized in 24 μl 50% formamid, 6×SSC, 0.5% SDS. 5×Denhardt's with 2.4 μg salmon sperm DNA, 10 μg poly dA at 42° C. (room temperature for test oligomer hybridization) for 16 hours. Following 10 min washes in 0.1×SSC, 0.1% SDS, and twice in 0.1×SSC the slide was scanned using the GMS 418 Scanner (Affymetrix).\nData Analysis. […] The median background-subtracted feature intensity was utilized for further analysis. Overall differences in the signal intensity of the two wavelengths measured on each slide (λ=532 nm and λ=635 nm) were corrected using the locally linear robust scatterplot smoother implemented in the loess function in S Plus Professional (Insightful Corporation). Predictors were generated using a symmetric distribution, span=0.75 (Venables and Ripley (1999) Modern Applied Statistics with S-Plus. Spring, N.Y. Measurement precision was estimated by determining the median coefficient of variation within slides for each gene:\n[formula] Genes were selected according to the following algorithm (i) ±fold-change of >1.3; (ii) |t|>3; (iii) signal intensity in at least one channel >1% of the median signal intensity value; (iv) criteria i-iii observed in at least 2 of 3 experiments.\nMicroarray Identification of Genes Activated by GnRH is LβT2 Cells. The response to GnRH was studied in the GnRHR-expressing LβT2 gonadotrope cell line (Turgeon et al. (1996) Mol Endocrinol. 10:439-450). Three separate experiments comparing the effects of 1 hour exposure to GnRH or vehicle were performed. […]", "key": {"[1]": {"details": "100 nM GnRH vs vehicle, 1 hour, LβT2 cells"}, "[2]": {"details": "two clones spotted in different locations on the arrays, 100 nM GnRH, 1 hour"}}, "note": "Several values for one entry are separate records, joined by “and”; a condition that tells them apart may be missing. Equal values may be shown once.", "data": [{"substance": "gonadotropin releasing hormone [GnRH]", "values": [{"measurement": "1κB fold-change, Microarray (n = 3)", "setting": "[1]", "result": "1.7 ± 0.2", "unit": "fold"}, {"measurement": "Egr1 fold-change, Microarray (n = 3)", "setting": "[1]", "result": "12.9 ± 3.8", "unit": "fold"}, {"measurement": "Egr2 fold-change, Microarray (n = 3)", "setting": "[1]", "result": "1.5 ± 0.2", "unit": "fold"}, {"measurement": "Gem fold-change, Microarray (n = 3)", "setting": "[1]", "result": "1.7 ± 0.2", "unit": "fold"}, {"measurement": "HSP30 fold-change, Microarray (n = 3)", "setting": "[1]", "result": "1.3 ± 0.2", "unit": "fold"}, {"measurement": "Klf4 fold-change, Microarray (n = 3)", "setting": "[1]", "result": "1.7 ± 0.3", "unit": "fold"}, {"measurement": "Klf-like EST fold-change, Microarray (n = 3)", "setting": "[1]", "result": "2.3 ± 0.3", "unit": "fold"}, {"measurement": "LRG21 fold-change, Microarray (n = 3)", "setting": "[1]", "result": "31.2 ± 16.6", "unit": "fold"}, {"measurement": "MKP1/3CH134 fold-change, Microarray (n = 3)", "setting": "[1]", "result": "1.4 ± 0.1", "unit": "fold"}, {"measurement": "NMDMC fold-change, Microarray (n = 3)", "setting": "[1]", "result": "1.4 ± 0.3", "unit": "fold"}, {"measurement": "Nr4a1/nur77 fold-change, Microarray (n = 3)", "setting": "[1]", "result": "5.9 ± 1.5", "unit": "fold"}, {"measurement": "Nrf2 fold-change, Microarray (n = 3)", "setting": "[1]", "result": "1.3 ± 0.2", "unit": "fold"}, {"measurement": "PRL1 fold-change, Microarray (n = 3)", "setting": "[1]", "result": "2.0 ± 0.4", "unit": "fold"}, {"measurement": "Period1 fold-change, Microarray (n = 3)", "setting": "[1]", "result": "2.1 ± 0.1", "unit": "fold"}, {"measurement": "Rgs2 fold-change, Microarray (n = 3)", "setting": "[1]", "result": "4.0 ± 1.3", "unit": "fold"}, {"measurement": "TSC22 fold-change, Microarray (n = 3)", "setting": "[1]", "result": "3.4 ± 0.4", "unit": "fold"}, {"measurement": "c-fos fold-change, Microarray (n = 3)", "setting": "[1]", "result": "12.5 ± 4.0", "unit": "fold"}, {"measurement": "c-jun fold-change, Microarray (n = 3)", "setting": "[1]", "result": "3.8 ± 0.6", "unit": "fold"}, {"measurement": "gly96 fold-change, Microarray (n = 3)", "setting": "[1]", "result": "1.7 ± 0.6", "unit": "fold"}, {"measurement": "ler2/Pip92 fold-change, Microarray (n = 3)", "setting": "[1]", "result": "5.2 ± 1.2", "unit": "fold"}, {"measurement": "transgelin fold-change, Microarray (n = 3)", "setting": "[1]", "result": "1.4 ± 0.1", "unit": "fold"}, {"measurement": "β-actin fold-change, Microarray (n = 3)", "setting": "[1]", "result": "2.0 ± 0.5", "unit": "fold"}, {"measurement": "γ-actin fold-change, Microarray (n = 3)", "setting": "[1]", "result": "2.7 ± 0.3", "unit": "fold"}, {"measurement": "Time course of induced genes, FMA", "setting": "cells exposed to GnRH for 3 hours and 6 hours", "result": "nearly all of the induced genes return to baseline levels of expression by 3 hours"}, {"measurement": "Nrf2 degree of change on microarray, two different clones", "setting": "[2]", "result": "1.3±0.2 and 1.3±0.1"}, {"measurement": "PRL1 degree of change on microarray, two different clones", "setting": "[2]", "result": "2.0±0.4 and 1.5±0.4"}, {"measurement": "Rgs2 degree of change on microarray, two different clones", "setting": "[2]", "result": "4.0±1.3 and 2.9±1.2"}, {"measurement": "TSC22 degree of change on microarray, two different clones", "setting": "[2]", "result": "3.4±0.4 and 3.3±0.6"}]}]}
